How the values were obtained:
CCR3 = target: T1, CCR3 (Homo sapiens, UniProt P51677); assay: CCR3 receptor binding assay ([125I]-labeled human eotaxin/CCL11 displacement on cells); conditions: 0.1 nM [125I]-labeled human eotaxin/CCL11, 2×10^5 cells/well, 60 min at room temperature
T1 sequence (P51677 1-355): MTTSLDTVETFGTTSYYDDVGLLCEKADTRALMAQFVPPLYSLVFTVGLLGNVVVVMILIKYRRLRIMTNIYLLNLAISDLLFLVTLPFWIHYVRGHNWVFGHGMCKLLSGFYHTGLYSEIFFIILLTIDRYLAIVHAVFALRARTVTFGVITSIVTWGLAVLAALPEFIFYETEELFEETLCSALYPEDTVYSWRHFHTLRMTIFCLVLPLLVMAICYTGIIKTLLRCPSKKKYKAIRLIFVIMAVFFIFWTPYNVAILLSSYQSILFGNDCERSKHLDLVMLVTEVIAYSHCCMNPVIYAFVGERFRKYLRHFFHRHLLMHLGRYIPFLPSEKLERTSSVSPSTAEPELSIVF
Procedure, shortened: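 Cells (2×10^5/well) incubated 60 min at room temperature with 0.1 nM [125I]-human eotaxin/CCL11 in 25 mM HEPES pH 7.6, MgCl2, CaCl2, 0.5% BSA. Bound radioactivity counted after filtration and 0.5 M NaCl washes. Non-specific binding defined with 500 nM unlabeled eotaxin.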

SMILES | Ki (CCR3) [µM] | melting point [°C]
CS(=O)(=O)N1CCN(S(=O)(=O)c2cc([N+](=O)[O-])ccc2Sc2cc(Cl)ccc2Cl)CC1 [Compound 202, 1-(2-(2,5-Dichlorophenylthio)-5-nitrophenylsulfonyl)-4-(methylsulfonyl)-piperazine] | > 5 | 277 to 281
CN(C)S(=O)(=O)N1CCN(S(=O)(=O)c2cc([N+](=O)[O-])ccc2Sc2cc(Cl)ccc2Cl)CC1 [Compound 203, 4-(2-(2,5-Dichlorophenylthio)-5-nitrophenylsulfonyl)-N,N-dimethyl-piperazine-1-sulfonamide] | > 5 | 231 to 234
O=[N+]([O-])c1ccc(Sc2cc(Cl)ccc2Cl)c(S(=O)(=O)N2CCN(S(=O)(=O)c3ccccc3)CC2)c1 [Compound 204, 1-(2-(2,5-Dichlorophenylthio)-5-nitrophenylsulfonyl)-4-(phenylsulfonyl)-piperazine] | > 5 | 236 to 239
O=[N+]([O-])c1ccc(Sc2cc(Cl)ccc2Cl)c(S(=O)(=O)N2CCN(S(=O)(=O)c3ccc(C(F)(F)F)cc3)CC2)c1 [Compound 205, 1-(2-(2,5-dichlorophenylthio)-5-nitrophenylsulfonyl)-4-(4-(trifluoromethyl)phenylsulfonyl)piperazine] | > 5 | 264 to 267
